pIC50: −log10 of the molar value. Converted amounts (≈) assume the structure as drawn.
Columns and labels:
Escherichia coli [1] = assay: microbe, parasite or virus in culture; details: ATCC 25922, 24 h
Salmonella typhimurium [2] = assay: Antibacterial activity against Salmonella typhimurium DT104 assessed as inhibition of bacterial growth incubated for 18 hrs by CLSI protocol based microbroth dilution method; type: functional, Salmonella enterica subsp. enterica serovar Typhimurium; details: Salmonella enterica
Clostridium perfringens [3] = assay: Antibacterial activity against Clostridium perfringens assessed as bacterial growth inhibition after 24 hrs by microdilution method; type: functional
Acetylcholinesterase [4] = target: T1, Acetylcholinesterase (Homo sapiens, UniProt P22303); assay: Inhibition of AChE (unknown origin)
Cholinesterase = Cholinesterase (Homo sapiens, UniProt P06276); assay: Inhibition of human BChE using butyrylthiocholine iodide as substrate incubated for 15 mins by spectrophotometric Ellman's method
Staphylococcus aureus [5] = assay: Antimicrobial activity against Staphylococcus aureus […] assessed as reduction in bacterial growth incubated for 24 hrs by Mueller-Hinton agar based analysis; type: functional
[6] = test system: Staphylococcus epidermidis; assay: Antimicrobial activity against Staphylococcus epidermidis ATCC 12228 assessed as reduction in bacterial growth incubated for 24 hrs by Mueller-Hinton agar based analysis; type: functional
Escherichia coli [7] = assay: Antibacterial activity against Escherichia coli assessed as reduction in bacterial growth incubated for 24 hrs by Mueller-Hinton agar based analysis; type: functional
Pseudomonas aeruginosa [8] = assay: Antibacterial activity against Pseudomonas aeruginosa ATCC 15442 assessed as reduction in bacterial growth incubated for 24 hrs by Mueller-Hinton agar based analysis; type: functional
Mushroom tyrosinase = Mushroom tyrosinase (Agaricus bisporus, UniProt O42713+Q00024+C7FF04+C7FF05); assay: Inhibition of mushroom tyrosinase using L-DOPA as substrate by spectrophotometric analysis; type: protein assay
Phytophthora capsici = assay: Antifungal activity against Phytophthora capsici; type: functional, organism-based
[9] = Antioxidant activity assessed as DPPH radical scavenging activity incubated for 20 mins by spectrophotometric method; type: functional
MIA PaCa-2 = assay: Growth inhibition of human MIA PaCa-2 cells measured for 48 hrs by SRB assay; type: functional
Bacillus subtilis = assay: Antibacterial activity against Bacillus subtilis assessed as zone of inhibition; type: functional
Proteus vulgaris = assay: Antimicrobial activity against Proteus vulgaris NCIM 2813 assessed as zone of inhibition incubated for 24 hrs by agar diffusion method; type: functional
Staphylococcus aureus [10] = assay: Antibacterial activity against Staphylococcus aureus ATCC 25923 assessed as zone of inhibition by agar diffusion method; type: functional
Acetylcholinesterase [11] = target: T1, Acetylcholinesterase; assay: Inhibition of AChE (unknown origin) using acetylthiocholine iodide as substrate by Ellman's method
Escherichia coli [12] = assay: Antibacterial activity against Escherichia coli assessed as reduction in bacterial growth inhibition; type: functional
Salmonella typhimurium [13] = assay: Antibacterial activity against Salmonella typhimurium DT104 assessed as reduction in bacterial growth inhibition; type: functional, Salmonella enterica subsp. enterica serovar Typhimurium
Salmonella enteritidis = assay: Antibacterial activity against Salmonella enterica subsp. enterica serovar Enteritidis assessed as reduction in bacterial growth inhibition; type: functional
Clostridium perfringens [14] = assay: Antibacterial activity against Clostridium perfringens assessed as reduction in bacterial growth inhibition; type: functional
Clostridium perfringens [15] = assay: Antibacterial activity against Clostridium perfringens assessed as inhibition of bacterial growth incubated for 18 hrs by CLSI protocol based microbroth dilution method; type: functional
Pseudomonas aeruginosa [16] = assay: Antibacterial activity against Pseudomonas aeruginosa ATCC 27853 assessed as bacterial growth inhibition measured after 18 hrs by CLSI protocol based two-fold serial microdilution method; type: functional
Helicobacter pylori = assay: Antibacterial activity against Helicobacter pylori assessed as reduction in bacterial growth incubated for 24 hrs by broth micro-dilution method; type: functional

Chain of Cholinesterase (P06276 whole entry): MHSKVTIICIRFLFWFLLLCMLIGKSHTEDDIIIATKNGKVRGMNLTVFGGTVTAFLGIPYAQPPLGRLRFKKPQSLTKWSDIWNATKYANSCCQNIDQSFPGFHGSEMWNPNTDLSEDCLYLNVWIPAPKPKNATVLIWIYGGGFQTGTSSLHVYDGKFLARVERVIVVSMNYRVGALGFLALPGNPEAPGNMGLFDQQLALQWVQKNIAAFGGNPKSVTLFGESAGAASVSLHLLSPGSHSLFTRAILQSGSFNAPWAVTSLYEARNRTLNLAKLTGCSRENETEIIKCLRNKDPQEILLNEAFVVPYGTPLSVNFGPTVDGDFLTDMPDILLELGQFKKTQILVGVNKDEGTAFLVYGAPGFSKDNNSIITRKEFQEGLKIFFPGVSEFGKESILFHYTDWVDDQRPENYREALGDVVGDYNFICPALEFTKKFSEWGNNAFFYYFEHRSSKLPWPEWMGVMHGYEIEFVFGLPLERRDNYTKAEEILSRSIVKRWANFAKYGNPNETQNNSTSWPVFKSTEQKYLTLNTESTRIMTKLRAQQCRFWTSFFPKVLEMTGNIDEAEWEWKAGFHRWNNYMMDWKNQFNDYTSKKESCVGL
T1 sequence (P22303 whole entry): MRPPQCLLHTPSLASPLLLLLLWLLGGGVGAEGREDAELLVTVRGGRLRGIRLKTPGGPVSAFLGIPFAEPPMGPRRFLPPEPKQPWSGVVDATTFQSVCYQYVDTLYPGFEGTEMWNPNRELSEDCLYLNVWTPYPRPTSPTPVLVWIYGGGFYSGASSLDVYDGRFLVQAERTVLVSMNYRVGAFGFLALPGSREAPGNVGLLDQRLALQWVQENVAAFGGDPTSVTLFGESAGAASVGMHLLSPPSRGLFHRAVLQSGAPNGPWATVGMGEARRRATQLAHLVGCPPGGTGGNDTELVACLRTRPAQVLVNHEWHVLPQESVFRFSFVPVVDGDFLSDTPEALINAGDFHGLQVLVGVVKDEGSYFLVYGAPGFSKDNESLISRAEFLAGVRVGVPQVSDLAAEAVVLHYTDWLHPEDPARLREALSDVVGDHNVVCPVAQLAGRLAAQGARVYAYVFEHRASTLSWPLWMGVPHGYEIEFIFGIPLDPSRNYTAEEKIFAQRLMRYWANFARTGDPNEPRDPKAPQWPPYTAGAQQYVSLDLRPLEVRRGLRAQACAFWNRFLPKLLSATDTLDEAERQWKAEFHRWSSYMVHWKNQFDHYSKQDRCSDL

Cc1ccc(C(C)C)cc1OC(=O)CC(C)C
MIC (Escherichia coli [1]): 11.7 µg/mL (≈ 49.9 µM)

Cc1ccc(C(C)C)cc1OCC(=O)O
MIC (Salmonella typhimurium [2]): 0.1 µg/mL (≈ 0.48 µM)

Cc1ccc(C(C)C)cc1OCCn1c([N+](=O)[O-])cnc1C
MIC (Clostridium perfringens [3]): 1 µg/mL (≈ 3.3 µM)

Cc1ccc(C(C)C)cc1OCC(=O)N1Cc2ccccc2C1
pIC50 (Acetylcholinesterase [4]): 5.71
pIC50 (Cholinesterase): 7.30

CSCC[C@H](NC(C)=O)C(=O)Oc1cc(C(C)C)ccc1C
MIC (Staphylococcus aureus [5]): 10 µg/mL (≈ 30.9 µM)
MIC [6]: 10 µg/mL (≈ 30.9 µM)
MIC (Escherichia coli [7]): 10 µg/mL (≈ 30.9 µM)
MIC (Pseudomonas aeruginosa [8]): 5 µg/mL (≈ 15.5 µM)

Cc1ccc(C(C)C)cc1OC(=O)COC(=O)c1ccc(O)cc1
IC50 (Mushroom tyrosinase): 14.9 µM

CCC(C)(NC(=O)c1cc(Cl)c(C)c(Cl)c1)C(=O)CCl (centres undefined) [ZOXAMIDE]
EC50 (Phytophthora capsici): 0.0268 µg/mL (≈ 0.0796 µM)

Cc1ccc(C(C)C)cc1OCC(=O)N(C(C)C)C(C)C
pIC50 (Acetylcholinesterase [4]): 5.71
pIC50 (Cholinesterase): 7.30

Cc1ccc(C(C)C)cc1OCC(=O)N/N=C/c1c(C(C)C)ccc(C)c1O
IC50 [9]: 0.16 µg/mL (≈ 0.418 µM)

Cc1ccc(C(C)C)cc1OCC(=O)NCCC1=CCCCC1
pIC50 (Acetylcholinesterase [4]): 5.71
pIC50 (Cholinesterase): 7.30

Cc1ccc(S(=O)(=O)N/N=C/c2c(C(C)C)ccc(C)c2O)cc1
GI50 (MIA PaCa-2): 10 µg/mL (≈ 28.9 µM)

Cc1ccc(C(C)C)cc1OC(=O)c1ccccc1
MIC (Escherichia coli [1]): 11.7 µg/mL (≈ 46 µM)

Cc1ccc(C(C)C)cc1OCC(=O)Nc1cccc(Cl)c1
inhibition zone (IZ) (Bacillus subtilis): 21 mm
inhibition zone (IZ) (Proteus vulgaris): 16 mm
inhibition zone (IZ) (Staphylococcus aureus [10]): 17 mm

CCOc1cc(C(C)C)ccc1C
MIC (Salmonella typhimurium [2]): 0.2 µg/mL (≈ 1.12 µM)

Cc1ccc(C(C)C)cc1OCC(=O)Nc1ccccc1
inhibition zone (IZ) (Bacillus subtilis): 8 mm

CNC(=O)COc1cc(C(C)C)ccc1C
pIC50 (Acetylcholinesterase [4]): 5.71
pIC50 (Cholinesterase): 7.30

CC(=O)N[C@@H](CS)C(=O)Oc1cc(C(C)C)ccc1C
MIC (Staphylococcus aureus [5]): 10 µg/mL (≈ 33.9 µM)
MIC [6]: 5 µg/mL (≈ 16.9 µM)
MIC (Escherichia coli [7]): 10 µg/mL (≈ 33.9 µM)
MIC (Pseudomonas aeruginosa [8]): 10 µg/mL (≈ 33.9 µM)

Cc1ccc(C(C)C)cc1OCC(O)CNCCC1=CCCCC1 (centres undefined)
pIC50 (Acetylcholinesterase [11]): 6.87

CCSC[C@H](NC(C)=O)C(=O)Oc1cc(C(C)C)ccc1C
MIC (Staphylococcus aureus [5]): 10 µg/mL (≈ 30.9 µM)
MIC [6]: 10 µg/mL (≈ 30.9 µM)
MIC (Escherichia coli [7]): 10 µg/mL (≈ 30.9 µM)
MIC (Pseudomonas aeruginosa [8]): 10 µg/mL (≈ 30.9 µM)

Cc1cc(S(=O)(=O)O)c(C(C)C)cc1O
MIC (Escherichia coli [12]): 0.75 %v/v
MIC (Salmonella typhimurium [13]): 0.75 %v/v
MIC (Salmonella enteritidis): 0.37 %v/v
MIC (Clostridium perfringens [14]): 0.37 %v/v

Cc1ccc(C(C)C)cc1OC(=O)COC(=O)c1ccc(O)cc1O
IC50 (Mushroom tyrosinase): 6.7 µM

Cc1ccc(C(C)C)c(/C=N/Nc2ccc(Cl)nn2)c1O
GI50 (MIA PaCa-2): 80 µg/mL (≈ 262 µM)

CCCNC(=O)COc1cc(C(C)C)ccc1C
pIC50 (Acetylcholinesterase [4]): 5.71
pIC50 (Cholinesterase): 7.30

C/C=C/C(=O)Oc1cc(C(C)C)ccc1C
MIC (Escherichia coli [1]): 11.7 µg/mL (≈ 53.6 µM)

Cc1cc(CO)c(C(C)C)cc1O
IC50 [9]: 156 µg/mL (≈ 865 µM)

COc1ccc(CCNC(=O)COc2cc(C(C)C)ccc2C)cc1OC
pIC50 (Acetylcholinesterase [4]): 5.71
pIC50 (Cholinesterase): 7.30

C[Se]CC[C@H](NC(C)=O)C(=O)Oc1cc(C(C)C)ccc1C
MIC (Staphylococcus aureus [5]): 10 µg/mL (≈ 27 µM)
MIC [6]: 5 µg/mL (≈ 13.5 µM)
MIC (Escherichia coli [7]): 5 µg/mL (≈ 13.5 µM)
MIC (Pseudomonas aeruginosa [8]): 5 µg/mL (≈ 13.5 µM)

Cc1ccc(C(C)C)cc1OC(=O)COC(=O)c1cccc(O)c1
IC50 (Mushroom tyrosinase): 14.9 µM

C=CCOc1cc(C(C)C)ccc1C
MIC (Clostridium perfringens [15]): 110 µg/mL (≈ 578 µM)
MIC (Pseudomonas aeruginosa [16]): 110 µg/mL (≈ 578 µM)

Cc1ccc(C(C)C)cc1OCC(O)CNC(C)(C)C (centres undefined)
pIC50 (Acetylcholinesterase [11]): 6.87

CCCCCCCNC(=O)COc1cc(C(C)C)ccc1C
inhibition zone (IZ) (Bacillus subtilis): 6 mm
inhibition zone (IZ) (Proteus vulgaris): 7 mm

CCC(=O)Oc1cc(C(C)C)ccc1C
MIC (Escherichia coli [1]): 11.7 µg/mL (≈ 56.7 µM)

Cc1ccc(C(C)C)cc1OCc1ccc(S(C)(=O)=O)cc1
MIC (Helicobacter pylori): 2 µg/mL (≈ 6.28 µM)

CC(=O)Oc1cc(C(C)C)ccc1C
MIC (Escherichia coli [1]): 11.7 µg/mL (≈ 60.9 µM)

Cc1ccc(C(C)C)cc1OC(=O)C(C)C
MIC (Escherichia coli [1]): 11.7 µg/mL (≈ 53.1 µM)

Cc1ccc(C(C)C)cc1OC(=O)CCCC[C@@H]1CCSS1
MIC (Staphylococcus aureus [5]): 10 µg/mL (≈ 29.5 µM)
MIC [6]: 10 µg/mL (≈ 29.5 µM)
MIC (Escherichia coli [7]): 5 µg/mL (≈ 14.8 µM)
MIC (Pseudomonas aeruginosa [8]): 5 µg/mL (≈ 14.8 µM)
